Data published in article PMC7983974 (Basic & Clinical Pharmacology & Toxicology, 2020).
Values joined by “and” are separate entries in the source; they are usually repeats but may differ in a detail not shown here. Equal values may be shown once. Read-outs that look alike come from different tables or passages of the source. Each block holds one molecule with its values, some of them ahead of it.

Assays:
[1] = target: T1, UGT-mediated glucuronidation of molidustat in human liver microsomes (HLMs) (Homo sapiens, UniProt P22309); experiment: Inhibition of M1 formation from molidustat in pooled human liver microsomes; format: in vitro ADME; settings: pooled HLMs 0.3 mg/mL, molidustat 5 µmol/L, 30 min, N=1; Table 1
T1 sequence (P22309 26-533): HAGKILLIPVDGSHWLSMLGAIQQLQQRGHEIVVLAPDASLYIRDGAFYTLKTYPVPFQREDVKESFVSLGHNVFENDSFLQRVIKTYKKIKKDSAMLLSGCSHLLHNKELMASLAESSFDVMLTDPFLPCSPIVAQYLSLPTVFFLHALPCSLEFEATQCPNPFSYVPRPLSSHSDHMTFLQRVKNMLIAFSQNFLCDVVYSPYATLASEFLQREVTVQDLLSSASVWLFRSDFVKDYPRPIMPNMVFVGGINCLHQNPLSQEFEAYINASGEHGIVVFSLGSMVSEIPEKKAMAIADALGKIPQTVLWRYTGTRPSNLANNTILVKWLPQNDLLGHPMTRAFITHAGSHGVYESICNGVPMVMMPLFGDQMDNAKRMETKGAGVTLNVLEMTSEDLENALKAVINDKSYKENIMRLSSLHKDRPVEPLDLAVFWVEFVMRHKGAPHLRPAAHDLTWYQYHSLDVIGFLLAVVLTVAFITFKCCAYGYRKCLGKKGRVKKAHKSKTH

[2] = test system: molidustat glucuronidation (clearance); experiment: In vitro-in vivo scaling: predicted increase in molidustat AUC; set-up: species or system human; settings: fm 0.9; unbound hepatic inlet concentration, ka 0.1 min^−1
[3] = target: T2, UGT-mediated glucuronidation of molidustat (M1 formation) (Homo sapiens, UniProt P22309); experiment: Inhibition of M1 formation from molidustat in pooled human liver microsomes; format: in vitro ADME; settings: human, pooled human liver microsomes, probe molidustat 5 µmol/L (formation of M1), IC50, pooled HLMs 0.3 mg/mL, N=1, Table 1
T2 sequence (P22309 26-533): T1 sequence (P22309 26-533)

[4] = test system: pooled human liver microsomes; experiment: Isoform-specific UGT inhibitors on M1 formation in human liver microsomes; format: in vitro ADME; settings: inhibitor 10 µmol L^−1; for inhibitory activity on M1 formation: liver, intestine and kidney microsomes
[5] = cited from earlier work
[6] = test system: pooled human intestine microsomes; experiment: Isoform-specific UGT inhibitors on M1 formation in human intestine microsomes; format: in vitro ADME; settings: inhibitor 10 µmol L^−1; molidustat 4.9 µmol L^−1; n = 2
[7] = test system: pooled human kidney microsomes; experiment: Isoform-specific UGT inhibitors on M1 formation in human kidney microsomes; format: in vitro ADME; settings: inhibitor 10 µmol L^−1; molidustat 4.9 µmol L^−1; n = 2
[8] = format: in vivo, human; settings: for t max: n = 13, median and range
[9] = (Molidustat + atazanavir)/molidustat, ANOVA

IC50 at 30 min [3]: 16 µM
Molecule: Cc1cccc(Nc2ccccc2C(=O)O)c1C [Mefenamic acid]
inhibitory activity on M1 formation [4]: none or very little activity

IC50 at 30 min [3]: 0.17 µM
AUCRinlet, ka 0.1 min^−1 (estimated increase in molidustat AUC) [2]: more than fivefold
Molecule: Cc1cn(-c2cc(NC(=O)c3ccc(C)c(Nc4nccc(-c5cccnc5)n4)c3)cc(C(F)(F)F)c2)cn1 [Nilotinib]

IC50 at 30 min [3]: 1.7 µM
Molecule: COc1ccc(/C=C/C(=O)Nc2ccccc2C(=O)O)cc1OC [Tranilast]

t max ([8]; 25 mg molidustat + atazanavir 400 mg qd for 5 days): 2.0 (1.5‐4.0) H
t max ([8]; 25 mg molidustat alone): 2.0 (1.0‐3.0) H
Point estimate parameter ratio, AUC [8, 9]: 0.85 and 0.8472
Point estimate parameter ratio, AUC(0‐tlast) [8, 9]: 0.8470
Point estimate parameter ratio, C max [8, 9]: 0.80 and 0.8002
reduction in systemic exposure to the glucuronide M1 with atazanavir ([8]; human, in vivo): −15%
exposure to M1 in the presence of atazanavir ([8]; relative to molidustat alone): approximately 85%
Molecule: Molidustat glucuronide [M1]

More lines, now with the values behind:

Molecule: C#C[C@]1(O)CC[C@H]2[C@@H]3CCc4cc(O)ccc4[C@H]3CC[C@@]21C [17a‐Ethynylestradiol]
IC50 [1]: 10.8 µM

Molecule: COC(=O)N[C@H](C(=O)N[C@@H](Cc1ccccc1)[C@@H](O)CN(Cc1ccc(-c2ccccn2)cc1)NC(=O)[C@@H](NC(=O)OC)C(C)(C)C)C(C)(C)C [Atazanavir]
AUCRinlet, ka 0.1 min^−1 (estimated increase in molidustat AUC) [2]: more than fivefold

Molecule: C#Cc1cccc(Nc2ncnc3cc(OCCOC)c(OCCOC)cc23)c1 [Erlotinib]
IC50 at 30 min [3]: 0.13 µM
AUCRinlet, ka 0.1 min^−1 (estimated increase in molidustat AUC) [2]: more than fivefold

Molecule: Cc1ccc(C)c(OCCCC(C)(C)C(=O)O[C@@H]2O[C@H](C(=O)O)[C@@H](O)[C@H](O)[C@H]2O)c1 [Gemfibrozil glucuronide]
IC50 [1]: 96.1 µM

Molecule: Cc1c(F)cccc1NC(=O)Nc1ccc(Cl)c(S(=O)(=O)[C@H]2CCCNC2)c1O [danirixin]
drug excreted as glucuronides [5]: approximately 90%
recovered as directly conjugated parent compound [5]: 80%

Molecule: Hecogenin
M1 formation in % of control in microsomal tissue, Intestine [6]: 106.0%
inhibitory activity on M1 formation [4]: none or very little activity
M1 formation in % of control in microsomal tissue, Liver ([4]; molidustat 4.9 µmol L^−1, n = 2): 104.7%
M1 formation in % of control in microsomal tissue, Kidney [7]: 102.4%
